Experimental data reported in patent US11541029B2, “High penetration compositions and their applications” (Techfields Pharma Co., Ltd., priority 2008, dated 2023).

Columns and labels:
SLAC/DB/DB obese mice = assay: Blood glucose and blood lipid levels in DB/DB mice; assay type: in vivo; conditions: 30 mg/kg transdermally once per day
Procedure: HPCs in the present disclosure lowered blood glucose levels and blood lipid levels in mice models (SLAC/DB/DB, obese mice, n=7). 30 mg/kg of 8% diethylaminoethyl acetylsalicylate.HCl salt (P-1, in 25% ethanol); 4-acetamidophenyl salicylyldimethylaminobutyrate.HCl (P-6, in 25% ethanol), diethylaminoethyl 5-(2,4-difluorophenyl)acetylsalicylate.5-(2,4-difluorophenyl)acetylsalicylic acid salt (P-8, in 25% ethanol), diethylaminoethyl salicylsalicylate.HCl salt (P-9, in 25% ethanol), diethylaminoethyl salicylate.AcOH(P-10, in 25% ethanol), diethylaminoethyl 5-acetamido-acetylsalicylate.HCl(P-58, in 25% ethanol), diethylaminoethyl acetylsalicylsalicylate.HCl salt (P-59, in 25% ethanol), diethylaminoethyl acetylsalicylsalicylsalicylate.HCl salt (P-60, in 25% ethanol) were administered transdermally to the backs (4 cm^2,fur was shaved) of DB/DB mice(SLAC/DB/DB, 10-12 weeks old) once per day (at 8 am) for 5 weeks. The blood glucose levels were measured once per week and blood lipid levels were measured once every other week.

normal SD rats (SLAC/SD) = assay: Blood glucose in normal SD rats treated with HPCs of NSAIAs; assay type: in vivo; conditions: 30 mg/kg transdermally once per day, no fasting
Procedure: (§1) A HPC in the present disclosure lowered blood glucose levels in rat models (SLAC/GK, type 2 diabetes, n=7). 30 mg/kg of 8% diethylaminoethyl acetylsalicylate.HCl salt (P-1, in 25% ethanol); 4-acetamidophenyl salicylyldimethylaminobutyrate.HCl (P-6, in 25% ethanol), diethylaminoethyl 5-(2,4-difluorophenyl)acetylsalicylate.5-(2,4-difluorophenyl)acetylsalicylic acid salt (P-8, in 25% ethanol), diethylaminoethyl salicylsalicylate.HCl salt (P-9, in 25% ethanol), diethylaminoethyl salicylate.AcOH(P-10, in 25% ethanol), diethylaminoethyl 5-acetamido-acetylsalicylate.HCl(P-58, in 25% ethanol), diethylaminoethyl acetylsalicylsalicylate. HCl salt (P-59, in 25% ethanol), diethylaminoethyl acetylsalicylsalicylsalicylate. HCl salt (P-60, in 25% ethanol) were administered transdermally to the backs (6 cm^2, fur was shaved) of GK rats (SLAC/GK, 14-16 weeks old) and normal SD rats (SLAC/SD, 14-16 weeks old) once per day (at 8 am) for 6 weeks.
(§2) The blood glucose levels were measured once every 3 days at 4:30 pm (no fasting) from the third week to the sixth week as shown in Table 10a and 10b. […] Moreover, the blood glucose levels of the rats stayed at normal level (6-9 mmol/L, no fasting) after the treatment was stopped for 40 days.

[1] = system: GK rats (SLAC/GK, type 2 diabetes); assay: Anti-diabetes (type II) activity of HPCs of NSAIAs in GK rats; assay type: in vivo; conditions: 30 mg/kg transdermally once per day, no fasting
Procedure: as §1, §2

[2] = system: SLAC:NOD-IDDM, type 1 diabetes; assay: Anti-diabetes (type I) activity of HPCs of NSAIAs; assay type: in vivo, mice; conditions: for blood glucose, Baseline: equal to 20 mg/kg of NSAIAs transdermally twice per day for 7 weeks; for blood glucose, Average: fourth week to seventh week, no fasting, equal to 20 mg/kg of NSAIAs transdermally twice per day
Description: 10% aqueous solution of diethylaminoethyl acetylsalicylate.acetylsalicylic acid salt (P-1, […]); 4-acetamidophenyl salicylyldimethylaminobutyrate. HCl (P-6), diethylaminoethyl 5-(2,4-difluorophenyl)acetylsalicylate.5-(2,4-difluorophenyl)acetylsalicylic acid salt (P-8), diethylaminoethyl salicylsalicylate.AcOH(P-9), diethylaminoethyl 5-acetamido-acetylsalicylate. HCl (P-58), diethylaminoethyl 2-(ρ-isobutylphenyl) propionate.citric acid (P-59), diethylaminoethyl acetylsalicylsalicylate. acetylsalicylsalicylsalicylic acid salt (P-60) (equal to of 20 mg/kg of NSAIAs) were administered transdermally to the shaved back (about 1.5 cm^2) of mice twice per day (at 8 am and 5 pm) for 7 weeks.
The blood glucose levels were measured once every 3 days at 4:30 pm (no fasting) from the fourth week to the seventh week as shown in Table 11.

| SMILES | Cholesterol (total), Day 1 (SLAC/DB/DB obese mice) [mmol/L] | Cholesterol (total), Week 5 (SLAC/DB/DB obese mice) [mmol/L] | Triglycerides, Day 1 (SLAC/DB/DB obese mice) [mmol/L] | Triglycerides, Week 5 (SLAC/DB/DB obese mice) [mmol/L] | blood glucose, Day 1 (SLAC/DB/DB obese mice) [mmol/L] | blood glucose, Week 5 (SLAC/DB/DB obese mice) [mmol/L] | blood glucose, Average (Week 2-5) (normal SD rats (SLAC/SD)) [mmol/L] | blood glucose, Day 1 (normal SD rats (SLAC/SD)) [mmol/L] | blood glucose, Average (Week 2-5) [1] [mmol/L] | blood glucose, Day 1 [1] [mmol/L] | blood glucose, Baseline [2] [mmol/L] | blood glucose, Average [2] [mmol/L] |
| --- | --- | --- | --- | --- | --- | --- | --- | --- | --- | --- | --- | --- |
| CC(=O)Oc1ccc(-c2ccc(F)cc2F)cc1C(=O)O.CCN(CC)CCOC(=O)c1cc(-c2ccc(F)cc2F)ccc1OC(C)=O [P-8, diethylaminoethyl 5-(2,4-difluorophenyl)acetylsalicylate.5-(2,4-difluorophenyl)acetylsalicylic acid salt] | 6.8 ± 0.4 | 5.0 ± 0.2 | 4.4 ± 0.4 | 2.2 ± 0.4 | 14.5 ± 2.7 | 8.4 ± 2.1 | 5.7 ± 1.2 | 5.6 ± 1.5 | 8.3 ± 2.1 | 16.9 ± 2.8 | 19.4 ± 3.1 | 9.7 ± 1.4 |
| CCN(CC)CCOC(=O)c1ccccc1OC(=O)c1ccccc1O.Cl [P-9, diethylaminoethyl salicylsalicylate.HCl salt] | 7.7 ± 0.5 | 4.9 ± 0.5 | 4.1 ± 0.4 | 2.1 ± 0.3 | 14.1 ± 2.5 | 8.7 ± 2.3 | 5.6 ± 1.2 | 5.5 ± 1.3 | 9.4 ± 2.7 | 16.4 ± 2.3 | 16.5 ± 3.6 | 8.4 ± 1.9 |
| CC(=O)Nc1ccc(OC(=O)c2ccccc2OC(=O)CCCN(C)C)cc1.Cl [P-6, 4-acetamidophenyl salicylyldimethylaminobutyrate.HCl] | 7.0 ± 0.4 | 4.9 ± 0.5 | 4.4 ± 0.5 | 2.5 ± 0.3 | 14.2 ± 2.0 | 9.5 ± 2.8 | 5.8 ± 1.1 | 5.7 ± 1.3 | 9.2 ± 2.7 | 16.8 ± 3.0 | 18.9 ± 4.3 | 9.5 ± 2.1 |
